14 compounds from US10736932B2, “Small molecule Ras inhibitors” (Ohio State Innovation Foundation, priority 2014, dated 2020) can be followed below.

One test deals with T1, K-Ras(G12V) (Homo sapiens, UniProt P01116, G12V).
T1 construct: The G12V mutant K-Ras (amino acids 1-185) was recombinantly fused; GST (N, cleaved yes); made in house; host or cells: Escherichia coli BL21
The experiment in a line: Fluorescence anisotropy (FA) binding of FITC-labeled cyclic peptides to K-Ras.

For test [1], the target named is T2, K-Ras / Raf RBD interaction (Homo sapiens, UniProt P01116, G12V).
T2 construct: The G12V mutant K-Ras (amino acids 1-185) was recombinantly fused; GST (N, cleaved yes); made in house; host or cells: Escherichia coli BL21
T2 sequence (P01116 1-185 isoform P01116-2 G12V): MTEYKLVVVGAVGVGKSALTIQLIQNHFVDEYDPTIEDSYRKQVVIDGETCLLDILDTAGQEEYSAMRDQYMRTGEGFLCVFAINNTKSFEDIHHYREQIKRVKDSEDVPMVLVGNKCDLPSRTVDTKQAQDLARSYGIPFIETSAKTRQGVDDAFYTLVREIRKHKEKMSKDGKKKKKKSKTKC
The test can be described thus: HTRF assay, inhibition of Ras-Raf RBD interaction.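 Also: HTRF signal read after overnight incubation of the assay plate at 4 °C.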 It is filed as binding.
Experimental: Recombinant HA-tagged K-Ras (no GST, 50 nM), GST-Raf RBD (50 nM each), a monoclonal anti-HA antibody labeled with acceptor d2 (2 μg/mL), a monoclonal anti-GST antibody labeled with donor Tb (0.25 μg/mL) (Cisbio), and increasing concentrations of cyclic peptide (0-20 μM) were mixed inPBS (total volume of 20 μL) in a 384-well plate. The plate was incubated overnight at 4° C. and the HTRF signal was measured on a Molecular Devices Spectramax M5 or a Tecan infinite M1000 Pro plate reader. The data were analyzed by Prism 6.0 from Graphpad Software, Inc. (La Jolla, Calif.) and IC50 values were obtained by fitting the data to dose-response-inhibition curve.

The mark [2] stands for this setting: Table 2, FITC-labeled peptide, read-out: Binding affinity KD.
[3] abbreviates: Table 1, resynthesized FITC-labeled peptides, FA, K-Ras, read-out: KD.

Where two headings read alike, the source gives them in different places. Square brackets hold non-standard residues; d marks the D form. Peptide text beside a SMILES is read from it. * marks the point of attachment. Lys(5-FITC)NH2 = NC(=O)[C@H](CCCCNC(=S)Nc1ccc2c(c1)C(=O)OC21c2ccc(O)cc2Oc2cc(O)ccc21)N*; FITC = O=C1OC2(c3ccc(O)cc3Oc3cc(O)ccc32)c2ccc(NC(=S)*)cc21; Phe(4-Cl) = N[C@@H](Cc1ccc(Cl)cc1)C(=O)O; Phe(4-F) = N[C@@H](Cc1ccc(F)cc1)C(=O)O; d2Nal = N[C@H](Cc1ccc2ccccc2c1)C(=O)O; Benzoyl(3-Br) = O=C(c1cccc(Br)c1)*; Isonicotinoyl = O=C(c1ccncc1)*; Phg = N[C@H](C(=O)O)c1ccccc1; Tle = CC(C)(C)[C@H](N)C(=O)O; X2 = O=C(C=Cc1ccc(Cl)cc1)*; X5 = O=C(c1cc(F)cc(Br)c1)*; dNle = CCCC[C@@H](N)C(=O)O; X4 = O=C(c1ccc(Cl)nc1)*; Dap = NC[C@H](N)C(=O)O; Bn = c1ccc(C*)cc1 Some results are limits rather than exact numbers.

T1 sequence (P01116 1-185 isoform P01116-2 G12V): as above
Experimental for K-Ras(G12V): The 13 hits were resynthesized, labeled with fluorescein isothiocyanate (FITC), purified by HPLC, and tested for binding to K-Ras by fluorescence anisotropy (FA).
For cyclic peptides derived from single library beads (library screening), K-Ras protein (non-GST fusion, 0-20 μM) was incubated with the TMR-labeled peptide (50 or 100 nM) in 20 μL of the blocking buffer for 2.5 h at 24° C. The FA values were measured on a Molecular Devices Spectramax M5 spectrofluorimeter, with excitation and emission wavelengths at 545 and 585 nm, respectively. Equilibrium dissociation constants (KD) were determined by plotting the FA values as a function of K-Ras concentration and fitting the data to the equation
[formula] where Y is the measured anisotropy at a given K-Ras concentration x; L is the peptide concentration; Qb/Qf is the correction fact for dye-protein interaction; Amax is the maximum anisotropy at saturating K-Ras concentration; and Amin is the minimum anisotropy. FA analyses with resynthesized FITC-labeled peptides were similarly carried out, except that the excitation and emission wavelengths were at 494 and 520 nm, respectively.

Turning to `C[C@H]1NC(=O)[C@H](C(C)(C)C)NC(=O)[C@H](CNC(=O)c2ccc(Cl)nc2)NC(=O)[C@H](CCC(N)=O)NC(=O)[C@@H](CCCCN)NC(=O)[C@H](Cc2ccc(F)cc2)NC(=O)[C@H](CCCNC(=N)N)NC(=O)[C@@H](Cc2ccc3ccccc3c2)NC(=O)[C@H](CCCCNC(=S)Nc2ccc3c(c2)C(=O)OC32c3ccc(O)cc3Oc3cc(O)ccc32)NC(=O)[C@H](CCCNC(=N)N)NC(=O)[C@H](CCCNC(=N)N)NC1=O` [Cyclorasin 9A27, (Dap(6-chloronicotinoyl)-Tle-ala-Arg-Arg-Lys(FITC)-nal-Arg-Fpa-lys-Gln)] (cyclo([Dap](X4)[Tle][dA]RRK(FITC)[d2Nal]R[Phe(4-F)][dK]Q)), the Kd at K-Ras(G12V) (setting [2]) is 1000 ± 100 nM.
On the same count and under the same terms, the value for `C[C@H]1NC(=O)[C@H](C(C)(C)C)NC(=O)[C@H](Cc2c[nH]c3ccccc23)NC(=O)[C@H](CCC(N)=O)NC(=O)[C@@H](CCCCN)NC(=O)[C@H](Cc2ccc(F)cc2)NC(=O)[C@H](CCCNC(=N)N)NC(=O)[C@@H](Cc2ccc3ccccc3c2)NC(=O)[C@H](CCCCNC(=S)Nc2ccc3c(c2)C(=O)OC32c3ccc(O)cc3Oc3cc(O)ccc32)NC(=O)[C@H](CCCNC(=N)N)NC(=O)[C@H](CCCNC(=N)N)NC1=O` [Cyclorasin 9A31, (Trp-Tle-ala-Arg-Arg-Lys(FITC)-nal-Arg-Fpa-lys-Gln)] (cyclo(K(FITC)[d2Nal]R[Phe(4-F)][dK]QW[Tle][dA]RR)) was 110 ± 10 nM.
Still for that read-out and setting: under `C[C@H]1NC(=O)[C@H](C(C)(C)C)NC(=O)[C@H](Cc2c[nH]c3ccccc23)NC(=O)[C@H](CCC(N)=O)NC(=O)[C@@H](CCCCNC(=O)c2cc(F)cc(Br)c2)NC(=O)[C@H](Cc2ccc(F)cc2)NC(=O)[C@H](CCCNC(=N)N)NC(=O)[C@@H](Cc2ccc3ccccc3c2)NC(=O)[C@H](CCCCNC(=S)Nc2ccc3c(c2)C(=O)OC32c3ccc(O)cc3Oc3cc(O)ccc32)NC(=O)[C@H](CCCNC(=N)N)NC(=O)[C@H](CCCNC(=N)N)NC1=O` [Cyclorasin 9A32, (Trp-Tle-ala-Arg-Arg-Lys(FITC)-nal-Arg-Fpa-lys(3-bromo-5-fluorobenzoyl)-Gln)] (cyclo(K(FITC)[d2Nal]R[Phe(4-F)][dK](X5)QW[Tle][dA]RR)) stands above 20000 nM; under `C[C@H]1NC(=O)[C@H](C(C)(C)C)NC(=O)[C@H]([C@@H](C)OCc2ccccc2)NC(=O)[C@H](CCC(N)=O)NC(=O)[C@@H](CCCCN)NC(=O)[C@H](Cc2ccc(F)cc2)NC(=O)[C@H](CCCNC(=N)N)NC(=O)[C@@H](Cc2ccc3ccccc3c2)NC(=O)[C@H](CCCCNC(=S)Nc2ccc3c(c2)C(=O)OC32c3ccc(O)cc3Oc3cc(O)ccc32)NC(=O)[C@H](CCCNC(=N)N)NC(=O)[C@H](CCCNC(=N)N)NC1=O` [Cyclorasin 9A26, (Thr(Bzl)-Tle-ala-Arg-Arg-Lys(FITC)-nal-Arg-Fpa-lys-Gln)] (cyclo(K(FITC)[d2Nal]R[Phe(4-F)][dK]QT(Bn)[Tle][dA]RR)), 710 ± 70 nM.
In the case of `C[C@H]1NC(=O)[C@H](C(C)(C)C)NC(=O)[C@H](Cc2c[nH]c3ccccc23)NC(=O)[C@H](CCC(N)=O)NC(=O)[C@@H](CCCCNC(=O)c2ccncc2)NC(=O)[C@H](Cc2ccc(F)cc2)NC(=O)[C@H](CCCNC(=N)N)NC(=O)[C@@H](Cc2ccc3ccccc3c2)NC(=O)[C@H](CCCCNC(=S)Nc2ccc3c(c2)C(=O)OC32c3ccc(O)cc3Oc3cc(O)ccc32)NC(=O)[C@H](CCCNC(=N)N)NC(=O)[C@H](CCCNC(=N)N)NC1=O` [Cyclorasin 9A35, (Trp-Tle-ala-Arg-Arg-Lys(FITC)-nal-Arg-Fpa-lys(isonicotinoyl)-Gln)] (cyclo(W[Tle][dA]RRK(FITC)[d2Nal]R[Phe(4-F)][dK](Isonicotinoyl)Q)), the Kd on K-Ras(G12V) (setting [2]) is above 20000 nM.
Still for that read-out and setting: the value for `C[C@H]1NC(=O)[C@H](C(C)(C)C)NC(=O)[C@H](CNC(=O)c2cc(F)cc(Br)c2)NC(=O)[C@H](CCC(N)=O)NC(=O)[C@@H](CCCCN)NC(=O)[C@H](Cc2ccc(F)cc2)NC(=O)[C@H](CCCNC(=N)N)NC(=O)[C@@H](Cc2ccc3ccccc3c2)NC(=O)[C@H](CCCCNC(=S)Nc2ccc3c(c2)C(=O)OC32c3ccc(O)cc3Oc3cc(O)ccc32)NC(=O)[C@H](CCCNC(=N)N)NC(=O)[C@H](CCCNC(=N)N)NC1=O` [Cyclorasin 9A25, (Dap(3-bromo-5-fluorobenzoyl)-Tle-ala-Arg-Arg-Lys(FITC)-nal-Arg-Fpa-lys-Gln)] (cyclo([Dap](X5)[Tle][dA]RRK(FITC)[d2Nal]R[Phe(4-F)][dK]Q)) was 470 ± 100 nM.
On to `C[C@H]1NC(=O)[C@H](C(C)(C)C)NC(=O)[C@H](Cc2c[nH]c3ccccc23)NC(=O)[C@H](CCC(N)=O)NC(=O)[C@@H](CCCCNC(=O)c2ccc(Cl)nc2)NC(=O)[C@H](Cc2ccc(F)cc2)NC(=O)[C@H](CCCNC(=N)N)NC(=O)[C@@H](Cc2ccc3ccccc3c2)NC(=O)[C@H](CCCCNC(=S)Nc2ccc3c(c2)C(=O)OC32c3ccc(O)cc3Oc3cc(O)ccc32)NC(=O)[C@H](CCCNC(=N)N)NC(=O)[C@H](CCCNC(=N)N)NC1=O` [Cyclorasin 9A33, (Trp-Tle-ala-Arg-Arg-Lys(FITC)-nal-Arg-Fpa-lys(6-chloronicotinoyl)-Gln)] (cyclo(K(FITC)[d2Nal]R[Phe(4-F)][dK](X4)QW[Tle][dA]RR)), for which the Kd at K-Ras(G12V) (setting [2]) was above 20000 nM.
On the same count and under the same terms, under `C[C@H]1NC(=O)[C@H](C(C)(C)C)NC(=O)[C@H](Cc2c[nH]c3ccccc23)NC(=O)[C@H](CCC(N)=O)NC(=O)[C@@H](CCCCNC(=O)c2cccc(Br)c2)NC(=O)[C@H](Cc2ccc(F)cc2)NC(=O)[C@H](CCCNC(=N)N)NC(=O)[C@@H](Cc2ccc3ccccc3c2)NC(=O)[C@H](CCCCNC(=S)Nc2ccc3c(c2)C(=O)OC32c3ccc(O)cc3Oc3cc(O)ccc32)NC(=O)[C@H](CCCNC(=N)N)NC(=O)[C@H](CCCNC(=N)N)NC1=O` [Cyclorasin 9A36, (Trp-Tle-ala-Arg-Arg-Lys(FITC)-nal-Arg-Fpa-lys(3-bromobenzoyl)-Gln)] (cyclo(K(FITC)[d2Nal]R[Phe(4-F)][dK](Benzoyl(3-Br))QW[Tle][dA]RR)) stands above 20000 nM.
For `C[C@@H](O)[C@@H]1NC(=O)[C@H](Cc2ccc(O)cc2)NC(=O)[C@@H](CC(N)=O)NC(=O)[C@H](Cc2ccc(F)cc2)NC(=O)[C@H](CCCNC(=N)N)NC(=O)[C@@H](Cc2ccc3ccccc3c2)NC(=O)[C@H](CCCNC(=N)N)NC(=O)[C@H](CCCNC(=N)N)NC(=O)[C@H](CCC(=O)N[C@@H](CCCCNC(=S)Nc2ccc3c(c2)C(=O)OC32c3ccc(O)cc3Oc3cc(O)ccc32)C(N)=O)NC(=O)[C@@H](CC(N)=O)NC1=O` [Cyclorasin 2A, (Arg-Arg-nal-Arg-Fpa-asn-Tyr-Thr-asn-Gln)] (cyclo(RR[d2Nal]R[Phe(4-F)][dN]YT[dN]E(Lys(5-FITC)NH2))), the Kd on K-Ras(G12V) (setting [3]) was above 10000 nM.
On to `C[C@H]1NC(=O)[C@H](C(C)(C)C)NC(=O)[C@H](CNC(=O)c2ccncc2)NC(=O)[C@H](CCC(N)=O)NC(=O)[C@@H](CCCCN)NC(=O)[C@H](Cc2ccc(F)cc2)NC(=O)[C@H](CCCNC(=N)N)NC(=O)[C@@H](Cc2ccc3ccccc3c2)NC(=O)[C@H](CCCCNC(=S)Nc2ccc3c(c2)C(=O)OC32c3ccc(O)cc3Oc3cc(O)ccc32)NC(=O)[C@H](CCCNC(=N)N)NC(=O)[C@H](CCCNC(=N)N)NC1=O` [Cyclorasin 9A29, (Dap(isonicotinoyl)-Tle-ala-Arg-Arg-Lys(FITC)-nal-Arg-Fpa-lys-Gln)] (cyclo([Dap](Isonicotinoyl)[Tle][dA]RRK(FITC)[d2Nal]R[Phe(4-F)][dK]Q)), for which, at K-Ras(G12V) (setting [2]), the Kd is 1200 ± 100 nM.
For the compound `N=C(N)NCCC[C@@H]1NC(=O)[C@H](CCC(=O)N[C@@H](CCCCNC(=S)Nc2ccc3c(c2)C(=O)OC32c3ccc(O)cc3Oc3cc(O)ccc32)C(N)=O)NC(=O)[C@@H](Cc2ccccc2)NC(=O)[C@@H](CO)NC(=O)[C@H](Cc2ccc(O)cc2)NC(=O)[C@H](c2ccccc2)NC(=O)[C@H](Cc2ccc(F)cc2)NC(=O)[C@H](CCCNC(=N)N)NC(=O)[C@@H](Cc2ccc3ccccc3c2)NC(=O)[C@H](CCCNC(=N)N)NC1=O` [Cyclorasin 8A, (Arg-Arg-nal-Arg-Fpa-Phg-Tyr-ser-phe-Gln)] (cyclo(RR[d2Nal]R[Phe(4-F)][Phg]Y[dS][dF]E(Lys(5-FITC)NH2))), the Kd on K-Ras(G12V) (setting [3]) was above 10000 nM.
Still for that read-out and setting: under `CC(C)[C@H]1NC(=O)[C@H](Cc2ccc(F)cc2)NC(=O)[C@H](Cc2ccc(O)cc2)NC(=O)[C@H](CCCNC(=N)N)NC(=O)[C@H](Cc2ccc(F)cc2)NC(=O)[C@H](CCCNC(=N)N)NC(=O)[C@@H](Cc2ccc3ccccc3c2)NC(=O)[C@H](CCCNC(=N)N)NC(=O)[C@H](CCCNC(=N)N)NC(=O)[C@H](CCC(=O)N[C@@H](CCCCNC(=S)Nc2ccc3c(c2)C(=O)OC32c3ccc(O)cc3Oc3cc(O)ccc32)C(N)=O)NC1=O` [Cyclorasin 1A, (Arg-Arg-nal-Arg-Fpa-Arg-Tyr-Fpa-val-Gln)] (cyclo(RR[d2Nal]R[Phe(4-F)]RY[Phe(4-F)][dV]E(Lys(5-FITC)NH2))) stands above 10000 nM.
As to `C[C@H]1NC(=O)[C@H](C(C)(C)C)NC(=O)[C@H](CNC(=O)C=Cc2ccc(Cl)cc2)NC(=O)[C@H](CCC(N)=O)NC(=O)[C@@H](CCCCN)NC(=O)[C@H](Cc2ccc(F)cc2)NC(=O)[C@H](CCCNC(=N)N)NC(=O)[C@@H](Cc2ccc3ccccc3c2)NC(=O)[C@H](CCCCNC(=S)Nc2ccc3c(c2)C(=O)OC32c3ccc(O)cc3Oc3cc(O)ccc32)NC(=O)[C@H](CCCNC(=N)N)NC(=O)[C@H](CCCNC(=N)N)NC1=O` [Cyclorasin 9A28, (Dap(4-chlorocinnamoyl)-Tle-ala-Arg-Arg-Lys(FITC)-nal-Arg-Fpa-lys-Gln)] (cyclo([Dap](X2)[Tle][dA]RRK(FITC)[d2Nal]R[Phe(4-F)][dK]Q)), on K-Ras(G12V) (setting [2]), the Kd turned out to be 160 ± 20 nM.
In turn, `CCCC[C@H]1NC(=O)[C@H](Cc2ccc(Cl)cc2)NC(=O)[C@H](CCCNC(=N)N)NC(=O)[C@@H](Cc2ccc3ccccc3c2)NC(=O)[C@H](CCCNC(=N)N)NC(=O)[C@H](CCCNC(=N)N)NC(=O)[C@H](CCCNC(=N)N)NC(=O)[C@@H](C)NC(=O)[C@H]([C@@H](C)O)NC(=O)[C@H](Cc2c[nH]c3ccccc23)NC(=O)[C@H](CCC(N)=O)NC1=O` [Cyclorasin 9A42, (Trp-Thr-ala-Arg-Arg-Arg-nal-Arg-Phe(4-chloro)-nle-Gln)] (cyclo(WT[dA]RRR[d2Nal]R[Phe(4-Cl)][dNle]Q)) came in with an IC50 in test [1] of 130 ± 20 nM.
